Results published in US20250230193A1, “CYCLIC COMPOUND HAVING SELECTIVE KRAS INHIBITORY EFFECT ON HRAS AND NRAS” (CHUGAI SEIYAKU KABUSHIKI KAISHA, priority 2022, published 2025).

Tests used:
[1] = target: GDP-bound NRAS wild-type protein (Homo sapiens, UniProt P01111); experiment: Binding to NRAS by surface plasmon resonance (SPR), Single Cycle Kinetics; settings: SPR; KD ratio class
[2] = target: GDP-bound HRAS wild-type protein (Homo sapiens, UniProt P01112); experiment: Binding to HRAS by surface plasmon resonance (SPR), Single Cycle Kinetics; settings: SPR; KD ratio class
[3] = system: human lung cancer strain NCI-H441; experiment: cells; settings: NCI-H441, 96 h, read-out: NCI-H441 IC50 (nM)

GDP-bound HRAS wild-type protein, sequence (P01112 whole entry): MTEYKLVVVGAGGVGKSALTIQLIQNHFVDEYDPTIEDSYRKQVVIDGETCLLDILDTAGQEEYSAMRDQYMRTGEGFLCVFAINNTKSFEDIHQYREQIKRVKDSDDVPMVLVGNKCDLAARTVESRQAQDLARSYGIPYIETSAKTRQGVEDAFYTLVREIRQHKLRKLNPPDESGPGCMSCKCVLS
GDP-bound NRAS wild-type protein, sequence (P01111 whole entry): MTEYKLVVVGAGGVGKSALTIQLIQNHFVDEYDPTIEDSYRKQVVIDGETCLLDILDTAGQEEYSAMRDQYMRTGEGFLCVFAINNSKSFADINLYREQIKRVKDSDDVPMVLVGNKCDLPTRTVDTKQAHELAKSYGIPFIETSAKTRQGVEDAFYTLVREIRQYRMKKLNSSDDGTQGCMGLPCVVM

Structure (SMILES)	NRAS/KRAS (ratio of KD value for GDP-bound NRAS wild-type protein to KD value for KRAS) [1]	HRAS/KRAS (ratio of KD value for GDP-bound HRAS wild-type protein to KD value for KRAS) [2]	IC50 [3]
CCO[C@@H]1C[C@H]2C(=O)NC3(CCC3)C(=O)N(C)[C@@H](C(CC)CC)C(=O)N(C)[C@H](C(=O)N(C)C)CC(=O)N(C)[C@@H](CC(C)C)C(=O)N[C@@H]([C@@H](C)CC)C(=O)N(C)CC(=O)N(C)[C@H]3C/C=C\CCN(C3=O)[C@@H](CC3CCC(F)(F)CC3)C(=O)N(C)CC(=O)N[C@@H](CCc3cc(F)c(C(F)(F)F)c(F)c3)C(=O)N2C1 [PP1433]	AA (a compound having 20 or more is denoted as AA)	A (a compound having 10 or more and less than 20 is denoted as A)	44.4 nM
CCO[C@@H]1C[C@H]2C(=O)NC3(CCC3)C(=O)N(C)[C@@H](C(CC)CC)C(=O)N(C)[C@H](C(=O)N3CCCC3)CC(=O)N(C)[C@@H](C)C(=O)N[C@@H]([C@@H](C)CC)C(=O)N(C)CC(=O)N(C)[C@H]3C/C=C\CCN(C3=O)[C@@H](CC3CCCCC3)C(=O)N(C)CC(=O)N[C@@H](CCc3cc(F)c(C(F)(F)F)c(F)c3)C(=O)N2C1 [PP1434]	A (a compound having 10 or more and less than 20 is denoted as A)	A (a compound having 10 or more and less than 20 is denoted as A)	112 nM
CCO[C@@H]1C[C@H]2C(=O)NC3(CCCC3)C(=O)N(C)[C@@H](C(CC)CC)C(=O)N(C)[C@H](C(=O)N3CCCC3)CC(=O)N(C)[C@@H](C)C(=O)N[C@@H]([C@@H](C)CC)C(=O)N(C)CC(=O)N(C)[C@H]3C/C=C\CCN(C3=O)[C@@H](CC3CCCCC3)C(=O)N(C)CC(=O)N[C@@H](CCc3cc(F)c(C(F)(F)F)c(F)c3)C(=O)N2C1 [PP1435]	A (a compound having 10 or more and less than 20 is denoted as A)	A (a compound having 10 or more and less than 20 is denoted as A)	178 nM
CCO[C@@H]1C[C@H]2C(=O)NC3(CCC3)C(=O)N(C)[C@@H](C(CC)CC)C(=O)N(C)[C@H](C(=O)N3CCCC3)CC(=O)N(C)[C@@H](C)C(=O)N[C@@H]([C@@H](C)CC)C(=O)N(C)CC(=O)N(C)[C@H]3C/C=C\CCN(C3=O)[C@@H](CC3CCC(F)(F)CC3)C(=O)N(C)CC(=O)N[C@@H](CCc3cc(F)c(C(F)(F)F)c(F)c3)C(=O)N2C1 [PP1436]	AA (a compound having 20 or more is denoted as AA)	A (a compound having 10 or more and less than 20 is denoted as A)	47.4 nM
CCO[C@@H]1C[C@H]2C(=O)NC3(CCCC3)C(=O)N(C)[C@@H](C(CC)CC)C(=O)N(C)[C@H](C(=O)N3CCCC3)CC(=O)N(C)[C@@H](C)C(=O)N[C@@H]([C@@H](C)CC)C(=O)N(C)CC(=O)N(C)[C@H]3C/C=C\CCN(C3=O)[C@@H](CC3CCC(F)(F)CC3)C(=O)N(C)CC(=O)N[C@@H](CCc3cc(F)c(C(F)(F)F)c(F)c3)C(=O)N2C1 [PP1437]	A (a compound having 10 or more and less than 20 is denoted as A)	A (a compound having 10 or more and less than 20 is denoted as A)	220 nM
CCO[C@@H]1C[C@H]2C(=O)NC3(CCC3)C(=O)N(C)[C@@H](C(CC)CC)C(=O)N(C)[C@H](C(=O)N3CCCC3)CC(=O)N(C)[C@@H](COC)C(=O)N[C@@H]([C@@H](C)CC)C(=O)N(C)CC(=O)N(C)[C@H]3C/C=C\CCN(C3=O)[C@@H](CC3CCCCC3)C(=O)N(C)CC(=O)N[C@@H](CCc3cc(F)c(C(F)(F)F)c(F)c3)C(=O)N2C1 [PP1438]	AA (a compound having 20 or more is denoted as AA)	A (a compound having 10 or more and less than 20 is denoted as A)	89.4 nM
CCO[C@@H]1C[C@H]2C(=O)NC3(CCCC3)C(=O)N(C)[C@@H](C(CC)CC)C(=O)N(C)[C@H](C(=O)N3CCCC3)CC(=O)N(C)[C@@H](COC)C(=O)N[C@@H]([C@@H](C)CC)C(=O)N(C)CC(=O)N(C)[C@H]3C/C=C\CCN(C3=O)[C@@H](CC3CCCCC3)C(=O)N(C)CC(=O)N[C@@H](CCc3cc(F)c(C(F)(F)F)c(F)c3)C(=O)N2C1 [PP1439]	AA (a compound having 20 or more is denoted as AA)	A (a compound having 10 or more and less than 20 is denoted as A)	87.3 nM
CCO[C@@H]1C[C@H]2C(=O)NC3(CCC3)C(=O)N(C)[C@@H](C(CC)CC)C(=O)N(C)[C@H](C(=O)N3CCCC3)CC(=O)N(C)[C@@H](COC)C(=O)N[C@@H]([C@@H](C)CC)C(=O)N(C)CC(=O)N(C)[C@H]3C/C=C\CCN(C3=O)[C@@H](CC3CCC(F)(F)CC3)C(=O)N(C)CC(=O)N[C@@H](CCc3cc(F)c(C(F)(F)F)c(F)c3)C(=O)N2C1 [PP1440]	AA (a compound having 20 or more is denoted as AA)	A (a compound having 10 or more and less than 20 is denoted as A)	69.7 nM
CCO[C@@H]1C[C@H]2C(=O)NC3(CCCC3)C(=O)N(C)[C@@H](C(CC)CC)C(=O)N(C)[C@H](C(=O)N3CCCC3)CC(=O)N(C)[C@@H](COC)C(=O)N[C@@H]([C@@H](C)CC)C(=O)N(C)CC(=O)N(C)[C@H]3C/C=C\CCN(C3=O)[C@@H](CC3CCC(F)(F)CC3)C(=O)N(C)CC(=O)N[C@@H](CCc3cc(F)c(C(F)(F)F)c(F)c3)C(=O)N2C1 [PP1441]	A (a compound having 10 or more and less than 20 is denoted as A)	A (a compound having 10 or more and less than 20 is denoted as A)	87.6 nM
CCO[C@@H]1C[C@H]2C(=O)NC3(CCC3)C(=O)N(C)[C@@H](C3CCCC3)C(=O)N(C)[C@H](C(=O)N3CCC3)CC(=O)N(C)[C@@H](CC)C(=O)N[C@@H]([C@@H](C)CC)C(=O)N(C)CC(=O)N(C)[C@H]3C/C=C\CCN(C3=O)[C@@H](CC3CCC(F)(F)CC3)C(=O)N(C)CC(=O)N[C@@H](CCc3cc(F)c(C(F)(F)F)c(F)c3)C(=O)N2C1 [PP1444]	A (a compound having 10 or more and less than 20 is denoted as A)	A (a compound having 10 or more and less than 20 is denoted as A)	103 nM
CCO[C@@H]1C[C@H]2C(=O)NC3(CCC3)C(=O)N(C)[C@@H](C3CCCC3)C(=O)N(C)[C@H](C(=O)N3CCC3)CC(=O)N(C)[C@@H](CC)C(=O)N[C@@H]([C@@H](C)CC)C(=O)N(C)CC(=O)N(C)[C@H]3C/C=C\CCN(C3=O)[C@@H](CC3CCCCC3)C(=O)N(C)CC(=O)N[C@@H](CCc3cc(F)c(C(F)(F)F)c(F)c3)C(=O)N2C1 [PP1445]	A (a compound having 10 or more and less than 20 is denoted as A)	A (a compound having 10 or more and less than 20 is denoted as A)	92.8 nM
CCO[C@@H]1C[C@H]2C(=O)NC3(CCC3)C(=O)N(C)[C@@H](C3CCCC3)C(=O)N(C)[C@H](C(=O)N(C)C)CC(=O)N(C)[C@@H](CC3CC3)C(=O)N[C@@H]([C@@H](C)CC)C(=O)N(C)CC(=O)N(C)[C@H]3C/C=C\CCN(C3=O)[C@@H](CC3CCCCC3)C(=O)N(C)CC(=O)N[C@@H](CCc3cc(F)c(C(F)(F)F)c(F)c3)C(=O)N2C1 [PP1446]	A (a compound having 10 or more and less than 20 is denoted as A)	A (a compound having 10 or more and less than 20 is denoted as A)	32 nM
CCO[C@@H]1C[C@H]2C(=O)NC3(CCC3)C(=O)N(C)[C@@H](C3CCCC3)C(=O)N(C)[C@H](C(=O)N(C)C)CC(=O)N(C)[C@@H](CC3CCCC3)C(=O)N[C@@H]([C@@H](C)CC)C(=O)N(C)CC(=O)N(C)[C@H]3C/C=C\CCN(C3=O)[C@@H](CC3CCC(F)(F)CC3)C(=O)N(C)CC(=O)N[C@@H](CCc3cc(F)c(C(F)(F)F)c(F)c3)C(=O)N2C1 [PP1458]	A (a compound having 10 or more and less than 20 is denoted as A)	A (a compound having 10 or more and less than 20 is denoted as A)	18.2 nM
CCO[C@@H]1C[C@H]2C(=O)NC3(CCCC3)C(=O)N(C)[C@@H](C3CCCC3)C(=O)N(C)[C@H](C(=O)N(C)C)CC(=O)N(C)[C@@H](CC(C)C)C(=O)N[C@@H]([C@@H](C)CC)C(=O)N(C)CC(=O)N(C)[C@H]3C/C=C\CCN(C3=O)[C@@H](CC3CCC(F)(F)CC3)C(=O)N(C)CC(=O)N[C@@H](CCc3cc(F)c(C(F)(F)F)c(F)c3)C(=O)N2C1 [PP1459]	A (a compound having 10 or more and less than 20 is denoted as A)	A (a compound having 10 or more and less than 20 is denoted as A)	38.6 nM
